Reference: PubChem BioAssay (NCI)
“And” between values parts separate entries of the source, which are not always exact repeats. Equal entries are not always repeated.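 Interpolation was linear, between the two tested concentrations surrounding the appropriate level; five concentrations were tested over 48 hours in 96-well plates. At the GI50, growth is halved. Definition used: TGI = concentration required for complete inhibition of growth.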 Where a SMILES comes first, the peptide text is derived from it. The star is where a group is joined. Boc = CC(C)(C)OC(=O)*; Bn = c1ccc(C*)cc1

Assays:
Assay in all cases: inhibition of tumour cell growth, NCI panel, 48 h
[1] = system: UACC-62 melanoma
[2] = system: MDA-N
[3] = system: MCF7 breast
[4] = system: SK-OV-3 ovarian
[5] = system: SF-539 CNS
[6] = system: A549 NSCLC
[7] = system: EKVX NSCLC
[8] = system: ACHN renal
[9] = system: NCI-H226 lung
[10] = system: MDA-MB-435
[11] = system: NCI-H23 lung
[12] = system: RXF 393 renal
[13] = system: SW-620 colon
[14] = system: BT-549 breast

SMILES | TGI [1] | TGI [2] [µM] | TGI [3] [µM] | TGI [4] | TGI [5] | TGI [6] [µM] | TGI [7] | TGI [8] | TGI [9] | TGI [10] | TGI [11] [µM] | TGI [12] | TGI [13] [µM] | TGI [14] | GI50 [1] | GI50 [3] | GI50 [5] | GI50 [8] | GI50 [10]
CC(C)(C)OC(=O)NCC(=O)N(CCc1ccc(Cl)c(Cl)c1)CCN1CCCC1 | 32.2 µM | 29.1 | 31.8 | 32.1 µM | 32.8 µM | 37.7 | 48.1 µM | 40.8 µM | 32.3 µM | 28.4 µM | 37.1 | 29.7 µM | 37.3 | 42.1 µM |  |  |  |  | 
CC(=O)c1sc2n(C)c(=O)c3ccccc3[n+]2c1C | > 100 µM | > 100 | > 100 | > 100 µM | > 100 µM | > 100 | > 100 µM | > 100 µM | > 100 µM | > 100 µM | > 100 | > 100 µM | > 100 | > 100 µM |  |  |  |  | 
COC(=O)C(CC(C)C)NC(=O)CNC(=O)C(Cc1ccc(OCc2ccccc2)cc1)NC(=O)C(COCc1ccccc1)NC(=O)OC(C)(C)C (stereo not given) (Boc-S(Bn)Y(Bn)GL-OMe; configuration not given here) | > 100 µM | > 100 | > 100 | > 100 µM | > 100 µM | > 100 | > 100 µM | > 100 µM | > 100 µM | > 100 µM | > 100 | > 100 µM | > 100 | > 100 µM |  |  |  |  | 
COc1cc(/C=C2\CC(C)C/C(=C\c3ccc(O)c(OC)c3)C2=O)ccc1O (stereo not given) | 4.01 µM | 7.37 | 19.3 | 12.4 µM | > 23.7 µM | 17.8 | 28.1 µM | 10.2 µM | 17.6 µM | 6.21 µM | 11 | 7.56 µM | 5.41 | 12.3 µM |  |  |  |  | 
Brc1ccc(N=Nc2ccc3ccccc3n2)cc1 | 43.5 µM | > 100 | > 100 | 49.6 µM | 55.2 µM | > 100 | > 100 µM | 31.2 µM | 66.9 µM | > 100 µM | > 100 | > 100 µM | > 100 | 60.5 µM |  |  |  |  | 
C=CCN1C(=O)/C(=C/c2ccc(OC)cc2)N=C1SC1OC(COC(C)=O)C(OC(C)=O)C(OC(C)=O)C1OC(C)=O (stereo not given) | 48.1 µM and > 100 µM | > 100 | > 100 | 36 µM and > 100 µM | 44.5 µM and > 100 µM | > 100 | 46 µM and > 100 µM | 32.3 µM and > 100 µM | 55.5 µM and > 100 µM | 46.5 µM and > 100 µM | > 100 | 46.5 µM and 89.5 µM | > 100 | 38.1 µM and 96.1 µM | 18.8 µM and 43.6 µM | 11.7 µM and > 100 µM | 19.9 µM and 42.8 µM | 15.4 µM and 77.3 µM | 18.6 µM and > 100 µM
O=C(/C=C/c1ccccc1Br)c1ccccc1 | 23.6 µM | 18.4 | 2.27 | 30.5 µM | 15.6 µM | 25.3 | 26.4 µM | 3.73 µM | 36.6 µM | 6.57 µM | 12.6 | 20.1 µM | 3.02 | 26.4 µM |  |  |  |  | 
CCOC(=O)C(C)c1nc2cc(C(F)(F)F)ccc2[nH]c1=O (stereo not given) | > 100 µM | > 100 | > 100 | > 100 µM | > 100 µM | > 100 | > 100 µM | > 100 µM | > 100 µM | > 100 µM | > 100 | > 100 µM | > 100 | > 100 µM |  |  |  |  | 
Nc1ncc(N)c(NCC2(CO)CC(CCc3ccccc3)C2)n1 (stereo not given) | 21.1 µM | 21.5 | 15.9 | 25.4 µM | 8.67 µM | 28.8 | 22.7 µM | 24.5 µM | 18.4 µM | 22.9 µM | 20.8 | 27.8 µM | 23.9 | 23.1 µM |  |  |  |  | 
CC(C(=O)O)C1Nc2ccccc2NC1=O (stereo not given) | > 100 µM | > 100 | > 100 | > 100 µM | > 100 µM | > 100 | > 100 µM | > 100 µM | > 100 µM | > 100 µM | > 100 | > 100 µM | > 100 | > 100 µM |  |  |  |  | 
